The assay deals with Plasmodium berghei. The assay can be described thus: Luciferase/luciferin-expressing antifolate-resistant parasites were used to infect a culture of HepG2 cells that were pre-incubated with compounds. Infected hepatocytes emit light due to the luciferase reaction. Assay results are presented as the percent inhibition of light emission compared to control. […]. The class given is functional. Conditions: sporozoite; for IC90: read-out: LUCIFERASE INFECTION ASSAY - IC90.

The structures appear in SMILES notation.

Broadly, the IC50 is the midpoint of a concentration-inhibition curve. What is called IC90 is the point of the concentration-response curve where the effect stands at 90%. On to `O=C(O)c1cnc2cc(Cl)cc(Cl)c2c1O`, for which the IC90 is > 12.8 µM. Besides, under “FFLUC_HILL_SLOPE 2.26, FFLUC_R_SQUARED 0.266, PBLUC_HILL_SLOPE 1.77, PBLUC_R_SQUARED 0.584, read-out: LUCIFERASE INFECTION ASSAY - IC50”, the IC50 worked out at 8.35 µM.

For `CN(c1ccccc1)c1cc(C(=O)Nc2ccccc2)ncn1`, the concentration for an effect of 90% (IC90) worked out at 0.681 µM. The IC50 (FFLUC_HILL_SLOPE 2.25, FFLUC_R_SQUARED 0.879, PBLUC_HILL_SLOPE 0.724, PBLUC_R_SQUARED 0.686, read-out: LUCIFERASE INFECTION ASSAY - IC50) is 0.0327 µM.

In the case of `CN1/C(=C\C(=O)CCCSc2nnc(-c3ccccc3)n2N)C(C)(C)c2ccccc21`, the concentration for an effect of 90% (IC90) is > 10 µM. Moreover, where the note is “FFLUC_HILL_SLOPE 2.28, FFLUC_R_SQUARED 0.541, HEPG2TOX_HILL_SLOPE 7.74, HEPG2TOX_R_SQUARED 0.566, PBLUC_HILL_SLOPE 1.71, PBLUC_R_SQUARED 0.591, read-out: LUCIFERASE INFECTION ASSAY - IC50”, the IC50 was found to be 3.64 µM.

With `Cc1onc(-c2ccc(Cl)cc2Cl)c1-c1csc(Nc2ccc(Cl)cc2)n1`, the IC90 is > 7.56 µM. Where the note is “FFLUC_HILL_SLOPE 2.37, FFLUC_R_SQUARED 0.46, PBLUC_HILL_SLOPE 2.86, PBLUC_R_SQUARED 0.233, read-out: LUCIFERASE INFECTION ASSAY - IC50”, the half-maximal inhibitory concentration (IC50) is 6.39 µM.

For the compound `O=C1CCCC2=Nc3ccc4ccccc4c3C(c3ccc(F)cc3F)C12` (centres undefined), the 90% effect concentration (IC90) is > 10 µM. In addition, the IC50 (FFLUC_HILL_SLOPE 2.36, FFLUC_R_SQUARED 0.309, read-out: LUCIFERASE INFECTION ASSAY - IC50) was > 10 µM.

With `O=C1C(=O)N(Cc2ccc(Cl)cc2)c2c1cccc2C(F)(F)F`, the IC90 stood at 3.39 µM. In addition, the half-maximal inhibitory concentration (IC50) (FFLUC_HILL_SLOPE 2.39, FFLUC_R_SQUARED 0.89, HEPG2TOX_HILL_SLOPE 3.88, HEPG2TOX_R_SQUARED 0.975, PBLUC_HILL_SLOPE 2.88, PBLUC_R_SQUARED 0.708, read-out: LUCIFERASE INFECTION ASSAY - IC50) was 1.58 µM.

For the compound `COC(=O)c1ccc(/C=C2\Oc3cc(O)cc(C)c3C2=O)cc1`, the concentration for an effect of 90% (IC90) is > 10.6 µM. The IC50 (FFLUC_HILL_SLOPE 2.39, FFLUC_R_SQUARED 0.815, read-out: LUCIFERASE INFECTION ASSAY - IC50) is > 10.6 µM.

Turning to `CC1Cc2cc(C3=NNC(=NC4CC4)SC3)ccc2N1S(C)(=O)=O` (centres undefined), the 90% effect concentration (IC90) was 1.38 µM. Moreover, the half-maximal inhibitory concentration (IC50) (FFLUC_HILL_SLOPE 2.25, FFLUC_R_SQUARED 0.383, HEPG2TOX_HILL_SLOPE 1.12, HEPG2TOX_R_SQUARED 0.483, PBLUC_HILL_SLOPE 1.74, PBLUC_R_SQUARED 0.672, read-out: LUCIFERASE INFECTION ASSAY - IC50) turned out to be 0.197 µM.

Regarding `Cc1onc(-c2c(Cl)cccc2Cl)c1NC(=O)Nc1cscc1S(=O)(=O)C(C)C`, the 90% effect concentration (IC90) is > 6.96 µM. Moreover, the IC50 (FFLUC_HILL_SLOPE 2.28, FFLUC_R_SQUARED 0.234, read-out: LUCIFERASE INFECTION ASSAY - IC50) was > 6.96 µM.

`O=C(Nc1nc2c(s1)CCC2)c1cnn(-c2ccccc2)c1C1CC1`: the concentration for an effect of 90% (IC90) is 0.405 µM. Besides, for the setting “FFLUC_HILL_SLOPE 2.39, FFLUC_R_SQUARED 0.896, PBLUC_HILL_SLOPE 0.607, PBLUC_R_SQUARED 0.989, read-out: LUCIFERASE INFECTION ASSAY - IC50”, the IC50 was 0.0108 µM.

`Cc1ccc(-c2nn(-c3ccccc3)cc2/C=C(/C(=O)c2ccccc2)c2nc3ccccc3s2)o1`: the IC90 was > 10 µM. Besides, the half-inhibitory concentration (IC50) (FFLUC_HILL_SLOPE 2.3, FFLUC_R_SQUARED 0.652, PBLUC_HILL_SLOPE 2.05, PBLUC_R_SQUARED 0.091, read-out: LUCIFERASE INFECTION ASSAY - IC50) was > 10 µM.

Consider `C=CCn1c(SC(C(=O)c2c[nH]c3ccccc23)c2ccccc2)nc2sc(C)c(C)c2c1=O` (centres undefined), for which the IC90 amounted to 3.74 µM. For the same compound, the IC50 (FFLUC_HILL_SLOPE 2.34, FFLUC_R_SQUARED 0.404, HEPG2TOX_HILL_SLOPE 0.632, HEPG2TOX_R_SQUARED 0.765, PBLUC_HILL_SLOPE 19.2, PBLUC_R_SQUARED 0.592, read-out: LUCIFERASE INFECTION ASSAY - IC50) is 3.33 µM.

`Cc1cc(C(=O)ONC(=N)c2ccccc2)nn1C(C)(C)C`: the IC90 came out at 1.23 µM. The IC50 (FFLUC_HILL_SLOPE 2.36, FFLUC_R_SQUARED 0.364, PBLUC_HILL_SLOPE 1.16, PBLUC_R_SQUARED 0.78, read-out: LUCIFERASE INFECTION ASSAY - IC50) was 0.186 µM.

On to `S=C(NCC1CCCO1)c1c(-c2ccccc2)c2c3n(c(COc4ccccc4)nn13)CCCC2` (centres undefined), for which the IC90 was 9.41 µM. Further, the 50% inhibitory concentration (IC50) (FFLUC_HILL_SLOPE 2.32, FFLUC_R_SQUARED 0.306, HEPG2TOX_HILL_SLOPE 7.94, HEPG2TOX_R_SQUARED 0.0665, PBLUC_HILL_SLOPE 11.7, PBLUC_R_SQUARED 0.258, read-out: LUCIFERASE INFECTION ASSAY - IC50) is 7.8 µM.

Take `Cc1nn(-c2ccccc2)c2nc(-c3cccs3)cc(C(=O)N3CCc4ccccc43)c12`: the concentration for an effect of 90% (IC90) is > 10 µM. Where the note is “FFLUC_HILL_SLOPE 2.26, FFLUC_R_SQUARED 0.632, PBLUC_HILL_SLOPE 0.862, PBLUC_R_SQUARED 0.727, read-out: LUCIFERASE INFECTION ASSAY - IC50”, the IC50 was determined as 4.63 µM.

On to `c1ccc2cc(C3=NNC(=NC4CC4)SC3)ccc2c1`, for which the 90% effect concentration (IC90) came to 0.0194 µM. For the setting “FFLUC_HILL_SLOPE 2.37, FFLUC_R_SQUARED 0.781, HEPG2TOX_HILL_SLOPE 1.63, HEPG2TOX_R_SQUARED 0.913, PBLUC_HILL_SLOPE 5.38, PBLUC_R_SQUARED 0.229, read-out: LUCIFERASE INFECTION ASSAY - IC50”, the concentration for half-maximal inhibition (IC50) was 0.0129 µM.

As for `CC(=O)C1=NN(c2ccccc2)C(c2ccccc2OCc2ccccc2)N1c1ccc(N2CCOCC2)cc1` (centres undefined), the IC90 is > 10 µM. Besides, where the note is “FFLUC_HILL_SLOPE 2.34, FFLUC_R_SQUARED 0.456, PBLUC_HILL_SLOPE 2.53, PBLUC_R_SQUARED 0.447, read-out: LUCIFERASE INFECTION ASSAY - IC50”, the 50% inhibitory concentration (IC50) came out at 9.41 µM.

As to `Fc1ccc(CSc2nc(CSc3ccc(Cl)cc3)cc(Sc3ccc(Cl)cc3)n2)cc1`, the IC90 was > 6.35 µM. Further, under “FFLUC_HILL_SLOPE 2.29, FFLUC_R_SQUARED 0.432, read-out: LUCIFERASE INFECTION ASSAY - IC50”, the half-maximal inhibitory concentration (IC50) is > 6.35 µM.

In the case of `CCCN(CCC)c1ccc(C(C2C(=O)CC(C)(C)CC2=O)C2C(=O)CC(C)(C)CC2=O)cc1`, the 90% effect concentration (IC90) is > 10 µM. Moreover, the half-inhibitory concentration (IC50) (FFLUC_HILL_SLOPE 2.34, FFLUC_R_SQUARED 0.0441, PBLUC_HILL_SLOPE 3.18, PBLUC_R_SQUARED 0.551, read-out: LUCIFERASE INFECTION ASSAY - IC50) was found to be 5.61 µM.

On to `CC(C)(CSc1ccc(F)cc1)NS(=O)(=O)c1ccc(Cl)cc1`, for which the IC90 was > 10 µM. In addition, the IC50 (FFLUC_HILL_SLOPE 2.37, FFLUC_R_SQUARED 0.607, HEPG2TOX_HILL_SLOPE 7.41, HEPG2TOX_R_SQUARED 0.381, PBLUC_HILL_SLOPE 2.26, 0.933, PBLUC_R_SQUARED 0.368, 0.781, read-out: LUCIFERASE INFECTION ASSAY - IC50) is 4.38 µM.

With `Cc1ccc(N2C(=O)/C(=C/c3ccc(C(C)C)cc3)N=C2SCc2cccc(S(=O)(=O)N(C)C)c2)cc1`, the concentration for an effect of 90% (IC90) was > 10 µM. Also, the half-inhibitory concentration (IC50) (FFLUC_HILL_SLOPE 2.29, FFLUC_R_SQUARED 0.777, PBLUC_HILL_SLOPE 2.35, PBLUC_R_SQUARED 0.372, read-out: LUCIFERASE INFECTION ASSAY - IC50) came out at 6.97 µM.

As for `O=S(=O)(c1ccc(CNc2ncnc3scc(-c4ccc(F)cc4)c23)s1)N1CCCC1`, the IC90 is > 10 µM. Besides, the half-maximal inhibitory concentration (IC50) (FFLUC_HILL_SLOPE 2.33, FFLUC_R_SQUARED 0.668, PBLUC_HILL_SLOPE 11.9, PBLUC_R_SQUARED 0.757, read-out: LUCIFERASE INFECTION ASSAY - IC50) was 8.74 µM.

Turning to `CCSC1=N/C(=C\c2cc(C(C)(C)C)c(O)c(C(C)(C)C)c2)C(=O)S1`, the IC90 is > 8.74 µM. For the same compound, the concentration for half-maximal inhibition (IC50) (FFLUC_HILL_SLOPE 2.27, FFLUC_R_SQUARED 0.423, read-out: LUCIFERASE INFECTION ASSAY - IC50) is > 8.74 µM.

With `Cc1ccc(-n2c(SCc3c(-c4ccccc4)nc4sccn34)nnc2-c2ccccc2)cc1C`, the IC90 is 3.83 µM. Besides, the concentration for half-maximal inhibition (IC50) (FFLUC_HILL_SLOPE 2.28, FFLUC_R_SQUARED 0.669, PBLUC_HILL_SLOPE 14.9, PBLUC_R_SQUARED 0.408, read-out: LUCIFERASE INFECTION ASSAY - IC50) was 3.31 µM.

`COc1ccc(C(c2cc(Cl)c3cccnc3c2O)N2CCN(C)CC2)cc1` (centres undefined): the IC90 came out at 3.38 µM. Moreover, the IC50 (FFLUC_HILL_SLOPE 2.4, FFLUC_R_SQUARED 0.862, HEPG2TOX_HILL_SLOPE 1.1, HEPG2TOX_R_SQUARED 0.743, PBLUC_HILL_SLOPE 15.9, PBLUC_R_SQUARED 0.801, read-out: LUCIFERASE INFECTION ASSAY - IC50) was determined as 2.95 µM.

With `Nc1cc(Cl)c(-n2cccc2)cc1Oc1ccc(Cl)cc1`, the IC90 is > 10.3 µM. The IC50 (FFLUC_HILL_SLOPE 2.28, FFLUC_R_SQUARED 0.58, read-out: LUCIFERASE INFECTION ASSAY - IC50) was > 10.3 µM.

With `CCOC(=O)c1c(S(=O)(=O)Nc2ccc(C(C)(C)C)cc2)c(-c2ccccc2)n(-c2ccccc2)c1C`, the concentration for an effect of 90% (IC90) is 5.19 µM. Moreover, the half-maximal inhibitory concentration (IC50) (FFLUC_HILL_SLOPE 2.33, FFLUC_R_SQUARED 0.844, HEPG2TOX_HILL_SLOPE 0.337, HEPG2TOX_R_SQUARED 0.667, PBLUC_HILL_SLOPE 4.65, PBLUC_R_SQUARED 0.51, read-out: LUCIFERASE INFECTION ASSAY - IC50) is 3.23 µM.

Source of the values: ChEMBL document CHEMBL4483862, “Open-source discovery of chemical leads for next-generation chemoprotective antimalarials” (2018).
